Legend:
[1] = test system: HIV-1IIIB; assay: Inhibition of HIV-1IIIB infection in MT-4 cells (XTT staining); assay type: cell-based; conditions: HIV-1IIIB in MT-4 cells; for EC50: 6 days incubation, XTT, read-out: EC50 (50% inhibition of virus replication)
Protocol: (§1) The compounds were evaluated for inhibition of HIV-1IIIB infection and cellular toxicity in MT-4 cells.
(§2) The MT-4 cells and […] used in the HIV-1 inhibition assays were obtained from the AIDS Research and Reference Program (Rockville, MD) and propagated as recommended by the supplier.
(§3) Fifty microliters (50 μL) of MT-4 cells at a density of 1.0×10^4 cells/well in 10% complete RPMI-1640 (10% FBS supplemented with 1% L-glutamine and 1% Penicillin/Streptomycin) media were plated in a 96-well flat bottom plate. One-hundred microliters (100 μL) of each compound at 12 concentrations were added in triplicate followed by 50 μL of HIV-1IIIB at a pre-determined titer. The cultures were incubated for 6 days at 37° C./5% CO2. Following the incubation, the cells were stained with XTT for evaluation of compound efficacy and cellular toxicity, as described below.
(§4) Efficacy and toxicity values for the test materials were derived by measuring the reduction of the tetrazolium dye XTT (2,3-bis(2-methoxy-4-nitro-5-sulfophenyl)-5-[(phenylamino)carbonyl]-2H-tetrazolium hydroxide). XTT in metabolically active cells is metabolized by the mitochondrial enzyme NADPH oxidase to a soluble formazan product. XTT solution was prepared daily as a stock of 1 mg/mL in RPMI-1640 without additives. Phenazine methosulfate (PMS) solution was prepared at 0.15 mg/mL in DPBS and stored in the dark at −20° C. XTT/PMS stock was prepared immediately before use by adding 40 μL of PMS per mL of XTT solution. Fifty μL (50 μL) of XTT/PMS was added to each well of the plate and the plate incubated for 4 hours at 37° C. The 4-hour incubation has been empirically determined to be within the linear response range for XTT dye reduction with the indicated numbers of cells for each assay. The plates were sealed and inverted several times to mix the soluble formazan product and the plate was read at 450 nm (650 nm reference wavelength) with a Molecular Devices SpectraMax Plus 384 96 well plate format spectrophotometer.
(§5) Microsoft Excel 2010 in combination with XLfit4 was used to analyze and graph the data. EC50 (50% inhibition of virus replication), TC50 (50% reduction in cell viability) and a therapeutic index (TC50/EC50) are provided. Raw data for both antiviral activity and toxicity with a graphic representation of the data are provided in a printout summarizing the compound activity.

[2] = test system: MT-4 cells; assay: Cellular toxicity in MT-4 cells (XTT staining); assay type: cell-based; conditions: 6 days incubation, read-out: TC50 (50% reduction in cell viability)
Protocol: as §1, §2, §3, §4, §5

SMILES | EC50 [1] [nM] | CC50 [2] [nM] | Therapeutic Index (TC50/EC50) [1]
Cn1nc(NS(C)(=O)=O)c2c(Cl)ccc(-n3c([C@H](Cc4cc(F)cc(F)c4)NC(=O)Cn4nc(C(F)(F)F)c5c4C(F)(F)[C@@H]4C[C@H]54)nc4onc(-c5ccccc5)c4c3=O)c21 (atropisomer, axis not shown) [Compound 38] | > 100 | > 100 | –
Cn1nc(NS(C)(=O)=O)c2c(Cl)ccc(-n3c([C@H](Cc4cc(F)cc(F)c4)NC(=O)Cn4nc(C(F)(F)F)c5c4C(F)(F)[C@@H]4C[C@H]54)nc4sccc4c3=O)c21 (atropisomer, axis not shown) [Compound 33] | 0.34 | > 100 | >294.1
Cc1nsc2nc([C@H](Cc3cc(F)cc(F)c3)NC(=O)Cn3nc(C(F)(F)F)c4c3C(F)(F)[C@@H]3C[C@H]43)n(-c3ccc(Cl)c4c(NS(C)(=O)=O)nn(C)c34)c(=O)c12 (atropisomer, axis not shown) [Compound 45] | 0.47 | > 100 | >212.8
Cn1nc(NS(C)(=O)=O)c2c(Cl)ccc(-n3c([C@H](Cc4cc(F)cc(F)c4)NC(=O)Cn4nc(C(F)(F)F)c5c4C(F)(F)C4CC54)nc4nc(S(C)(=O)=O)sc4c3=O)c21 (stereo partly shown) [Compound 30] | > 100 | > 100 | –
Cn1nc(NS(C)(=O)=O)c2c(Cl)ccc(-n3c([C@H](Cc4cc(F)cc(F)c4)NC(=O)Cn4nc(C(F)(F)F)c5c4C(F)(F)[C@@H]4C[C@H]54)nc4ncsc4c3=O)c21 (atropisomer, axis not shown) [Compound 36] | 0.16 | > 100 | >625.0
CS(=O)(=O)Nc1nn(CC(F)(F)F)c2c(-n3c([C@H](Cc4cc(F)cc(F)c4)NC(=O)Cn4nc(C(F)(F)F)c5c4C(F)(F)[C@@H]4C[C@H]54)nc4ncsc4c3=O)ccc(Cl)c12 (atropisomer, axis not shown) [Compound 31] | 0.26 | > 100 | >384.6
